From ChEMBL document CHEMBL1208702, “Use of 2-[(18)F]fluoroethylazide for the Staudinger ligation - Preparation and characterisation of GABA(A) receptor binding 4-quinolones” (Bioorg Med Chem Lett, 2010)

Assay: Displacement of [3H]Ro151788 from GABA-A receptor in Wistar rat cerebellar membrane after 1 hr by liquid scintillation counting
Format: cell membranes, Cerebellum

| Ki | Structure (SMILES) |
| --- | --- |
| 0.7 nM | O=C(NCCF)c1c[nH]c2ccc(Cc3ccccc3)cc2c1=O |
| 0.13 nM | O=C(NCCCF)c1c[nH]c2ccc(Cc3ccccc3)cc2c1=O |
